Entries after “also recorded” stand apart in the source; their conditions may differ.
Tests used:
[1] = tested on: PD-1; test: PD-1 expression on NK cell surface, by FACS; assay type: cell-based, human; conditions: PB derived NK cells; SR1 10-1000 nM, 14 and 21 days, vs cytokines only; FIG. 4B
Text: (§1) For FACS analysis cells were stained with the following fluorescent antibodies: CD15 FITC, Cat. No. 332778, CD14 FITC, Cat. No. 345784, CD3 APC, Cat. No. 345767, all from Becton Dickinson (San Jose, Calif., USA), CD62L PE, Cat. No. 304806 from BioLegend (San Diego, Calif., USA), CD56 FITC, Cat. No. 11-0569-42 from eBioscience (San Diego, Calif., USA) and CD45 PE, Cat. No. R7807 from Dako (Glostrup, Denmark) and anti-CD200R and anti-PD-1 fluorescent antibodies. The cells were washed with a PBS solution containing 1% BSA, and stained (at 4° C. for 30 min) with fluorescein isothiocyanate (FITC)- or phycoerythrin (PE)-conjugated antibodies or allophycocyanin (APC). The cells were then washed in the above buffer and analyzed using a FACScalibur® flow cytometer (Becton Dickinson, San Jose, Calif., USA). The cells were passed at a rate of up to 1000 cells/second, using a 488 nm or 661 nm argon laser beam as the light source for excitation. Emission of 10^4 cells was measured using logarithmic amplification, and analyzed using the CellQuest software (Becton Dickinson). Cells stained with FITC, PE and APC-conjugated isotype control antibodies were used to determine background fluorescence. […] NK cells were stained with specific antibodies for the specified surface markers (CD62L, CD200R, PD-1) after 3 weeks incubation with SR1, and then monitored by FACS.

[2] = tested on: CD62L; test: CD62L expression on NK cell surface, by FACS; assay type: cell-based, human; conditions: PB derived NK cells; SR1 10-1000 nM, 14 and 21 days, vs cytokines only; FIG. 3
Text: as §1

[3] = tested on: human peripheral blood NK cells; test: Ex-vivo expansion of T-cell depleted peripheral blood NK cells in culture with cytokines; assay type: cell-based
Protocol: For depletion procedure, total nuclear cells from umbilical cord blood (CB), bone marrow (BM) or peripheral blood (PB) cells were layered on a Ficoll-Hypaque gradient (1.077 g/mL; Sigma), and centrifuged at 800×g for 30 minutes for separation of the mononuclear cells. The cells in the interface layer were collected and washed three times in phosphate-buffered saline (PBS) (Biological Industries, Israel) containing 0.5% HSA. Optionally, cells are not separated on the Ficoll-Hypaque gradient but washed three times in phosphate-buffered saline (PBS) (Biological Industries) containing 0.5% HSA (“total mononuclear fraction”). CD3 cells were depleted using the CD3 cell isolation kit (Miltenyi Biotec Bergisch, Gladbach, Germany) and the entire CD3 negative cell fraction was cultured. […] After negative depletion the cells were counted and characterized by FACS analysis. […] To estimate number of cells in culture, cell samples were counted following staining with trypan blue. […] In order to calculate the number of NK cells on day 0, the total number of cells seeded on day 0 was multiplied by the percent of CD56+/CD3− cells measured by the FACS on day 0. […] In order to determine the number of NK cells in culture, the total number of cells in culture was multiplied by the percent of CD56+/CD3− cells measured with the FACS on days 14 or 21. […]

[4] = tested on: human NK cells; test: In-vivo homing and engraftment of cultured, CFSE-stained human NK cells in spleen of irradiated NSG mice; design: species or system NOD.Cg-Prkdcscid Il2rgtm1Wjl/SzJ (NSG) mice; conditions: 15×10^6 NK cells cultured 2-3 weeks with SR1 vs without; irradiated (350 Rad) NSG mice; 4 days post infusion; FIG. 5
Protocol: NK cells were expanded with or without 1000 nM SR1, as described above. After 2 weeks in culture, cells were stained with CFSE and similar numbers (15×10^6) of cells were infused into irradiated (350 Rad) NSG mice. Mice were sacrificed 4-days post infusion. Spleens were analyzed for the homing and engraftment of human NK cells based on the CFSE fluorescence, in order to distinguish them from endogenous cells. Engraftment is expressed as the % of cells staining with CFSE. Irradiated (350 Rad) NOD.Cg-Prkdcscid Il2rgtm1Wjl/SzJ (NSG) mice received 15×10^6 cells from human peripheral blood NK (T-cell depleted) cultures maintained for up to 3 weeks with SR1 or without (SR1 0) SR1. Prior to infusion NK cells were stained with CFSE. Upon sacrifice of the mice 4 days post infusion, samples of spleen were evaluated by FACS for the percent of cells that are stained with CFSE.

[5] = tested on: CD200R; test: CD200R expression on NK cell surface, by FACS; assay type: cell-based, human; conditions: PB derived NK cells; SR1 10-1000 nM, 14 and 21 days, vs cytokines only; FIG. 4A
Text: as §1

[6] = tested on: CD3+CD56− cells; test: T-cell fraction (CD3+CD56-) in cultures of T-cell depleted peripheral blood NK cells, by FACS; assay type: cell-based, human; conditions: 21 day cultures; SR1 10 to 1000 nM vs cytokines only (SR1 0); FIG. 2
Protocol: For depletion procedure, total nuclear cells from umbilical cord blood (CB), bone marrow (BM) or peripheral blood (PB) cells were layered on a Ficoll-Hypaque gradient (1.077 g/mL; Sigma), and centrifuged at 800×g for 30 minutes for separation of the mononuclear cells. The cells in the interface layer were collected and washed three times in phosphate-buffered saline (PBS) (Biological Industries, Israel) containing 0.5% HSA. Optionally, cells are not separated on the Ficoll-Hypaque gradient but washed three times in phosphate-buffered saline (PBS) (Biological Industries) containing 0.5% HSA (“total mononuclear fraction”). CD3 cells were depleted using the CD3 cell isolation kit (Miltenyi Biotec Bergisch, Gladbach, Germany) and the entire CD3 negative cell fraction was cultured. […] After negative depletion the cells were counted and characterized by FACS analysis. […] To estimate number of cells in culture, cell samples were counted following staining with trypan blue. […] The cells were then washed in the above buffer and analyzed using a FACScalibur® flow cytometer (Becton Dickinson, San Jose, Calif., USA). […] Emission of 10^4 cells was measured using logarithmic amplification, and analyzed using the CellQuest software (Becton Dickinson). Cells stained with FITC, PE and APC-conjugated isotype control antibodies were used to determine background fluorescence.

## CC(C)n1cnc2c(NCCc3ccc(O)cc3)nc(-c3csc4ccccc34)nc21 [SR1, 4-(2-(2-(benzo[b]thiophen-3-yl)-9-isopropyl-9H-purin-6-ylamino)ethyl)phenol]
[1]
  expression of PD-1: reduced expression
[2]
  expression of CD62L: dramatically enhanced expression; also recorded: strongly enhanced expression
[3]; CD3+ or CD3+/CD19+ depleted peripheral blood mononuclear cells (2-10% NK at seeding), 2-3 weeks in culture with SR1
  cells in culture that were NK (CD56+CD3-) cells: more than 90%
[3]; day 21, SR1 10-1000 nM with cytokines (IL-2, IL-15) vs cytokines only (SR1 0), FIG. 1
  NK expansion (fold increase relative to day 0): greatly increased expansion; also recorded: significantly higher
[4]
  homing and engraftment into spleen (% of cells staining with CFSE): significantly higher; also recorded: increased localization and engraftment
[5]
  expression of CD200R: reduced expression
[6]
  percentages of CD3+CD56− cells (T-cell fraction): less prominent than in control; also recorded: lower than in control cultures

Source: patent US9175266B2, “Enhancement of natural killer (NK) cell proliferation and activity” (Gamida Cell Ltd., priority 2012, dated 2015)
